Results: patent publication US20250146022A1, “STABILISING THE HUMAN SPINDLE BY KIFC1/HSET” (MAX-PLANCK-GESELLSCHAFT ZUR FOERDERUNG DER WISSENSCHAFTEN …, priority 2021, published 2025)

Key:
[1] = test system: KIFC1/HSET-depleted aMTOC-free mouse oocytes; test: Rescue of spindle polarity in KIFC1/HSET-depleted aMTOC-free mouse oocytes (human oocyte mimics); assay type: cell-based
Source text: This domain, together with the conserved, microtubule-binding motor domain, allows KIFC1/HSET to organize microtubules via crosslinking and/or sliding (86). To investigate the requirement of different domains in KIFC1/HSET, the inventors expressed a series of truncation mutants in aMTOC-free mouse oocytes (FIG. 7K). […] To examine whether the motor activity is dispensable for the function of KIFC1/HSET in aMTOC-free mouse oocytes, the inventors depleted endogenous KIFC1/HSET by follicle RNAi and restored expression with wild-type HSET or with HSET(N593K), which crosslinks microtubules but cannot slide (87). […] Together, the inventors infer that the appropriate level of KIFC1/HSET's crosslinking and sliding activities are required for proper bipolar spindle assembly in the absence of aMTOCs.
Mouse follicles were microinjected with 3.5 pl of siRNAs at a needle concentration of 2 μM as previously described (11). For rescue experiments, in vitro grown oocytes were microinjected with 3.5 pl of mRNAs. mClover3-HSET mRNA was microinjected at a needle concentration of 275 ng/μl, mClover3-HSET(N593K) mRNA at 275 ng/μl, mClover3-NUMA(S1955D) mRNA at 400 ng/μl, mClover3-NUMA(S1955A) mRNA at 400 ng/μl, mClover3-NUMA(SpM-4A) mRNA at 400 ng/μl, mClover3-NUMA(ΔMTBD1) mRNA at 400 ng/μl and mClover3-NUMA(ΔMTBD2) mRNA at 400 ng/μl. Oocytes were allowed to express the mRNAs for 3-4 h before release.
To obtain mouse MI spindles, oocytes were incubated at 37° C. for around 7 h after released into dbcAMP-free medium. To obtain porcine and bovine MI spindles, oocytes were incubated at 39° C./5% CO2 for around 11 and 12 h, respectively, after released into RO-3306-free medium. To obtain human MI spindles, oocytes were incubated at 37° C. for around 14 and 15 h after NEBD. None of the oocytes used for immunofluorescence analyses was subjected to live imaging before fixation.
Time-lapse movies of live mouse, bovine and porcine oocytes, and fixed human and mouse spindles were analyzed in 3D using Imaris (Bitplane). To determine the stages of meiosis and to score for spindle instability, the timing of meiotic progression was quantified relative to the timing of NEBD. NEBD was defined as the time point when the sharp boundary between the nucleus and cytoplasm disappeared in the differential interference contrast image (for mouse oocytes) or when the nucleus started collapsing in the H2B channel (for bovine and porcine oocytes). Spindle poles were defined as regions of MAP4 or MAP4-MTBD or α-tubulin intensity that prominently protruded from the main microtubule mass. In FIG. 1D, oocytes with bipolar spindle, in which ends of all microtubules converged at the poles, were scored as having focused poles. […] For mouse oocytes, unfocused poles were further classified into mildly unfocused poles (with partially separated microtubule ends) and severely unfocused poles (with fully separated microtubule ends). In FIG. 4D, bovine and porcine oocytes, in which the spindle maintained a barrel-shaped bipolar morphology and a detectable spindle axis, were scored as having stable spindle poles. Oocytes, in which the spindle lost their initial bipolarity and underwent dynamic remodeling of the pole(s) were scored as having unstable spindle poles. […] Oocytes, in which the spindle had more than two poles, were scored as having multipolar spindle. In FIG. 1H, mouse oocytes, in which the spindle had two well-defined poles, were scored as having bipolar spindle. Mouse oocytes, in which the spindle had two poorly defined poles, were scored as having apolar/round spindle. Mouse oocytes, in which the spindle had more than two poles, were scored as having multipolar spindle. […] Mouse oocytes, in which the spindle lost its barrel shape but contains several weakly associated microtubule bundles, were scored as having disorganized spindle.

[2] = test system: human tripronuclear (3PN) zygotes; test: Live imaging of spindle assembly and chromosome segregation in human 3PN zygotes injected with KIFC1; assay type: cell-based; settings: for multipolar / bipolar spindle assembly: human 3PN zygotes, FIG. 9, B to D
Source text: Spindles in human fertilized eggs (zygotes) have also been reported to often be multipolar (6, 7, 122). […] The inventors thus tested if the introduction of exogenous KIFC1 increased the fidelity of spindle assembly and chromosome segregation in human zygotes, by using human tripronuclear (3PN) zygotes. Similar to the zygotes in (6, 7, 122), these zygotes frequently assembled multipolar spindles. […] Furthermore, introduction of mClover3-KIFC1 protein increased the frequency of zygotes with aligned chromosomes at anaphase onset from 20% to 57% (FIG. 9E), and the frequency of zygotes without lagging chromosomes during anaphase from 40% to 71% (FIG. 9F). Thus, introducing exogenous KIFC1 increased the efficiency of bipolar spindle assembly and reduced the risk of aneuploidy in human zygotes.
The use of human 3PN zygotes in this study was approved by the Ärztekammer Niedersachsen under the reference Bo/46/2020. Zygotes were collected from patients who underwent assisted reproduction treatment at Kinderwunschzentrum Göttingen and Fertility Center Berlin. All patients gave informed consent for their 3PN zygotes to be used in this study. For zygotes collected at Kinderwunschzentrum Göttingen, zygotes were cultured in G-1 PLUS medium (Vitrolife) under paraffin oil at 37° C. and 5% CO2. For zygotes collected at Fertility Center Berlin, zygotes were vitrified with Cryolock (FUJIFILM Irvine Scientific) using Vit Kit-Freeze (FUJIFILM Irvine Scientific). To maximize the survival and developmental rate of vitrified-thawed zygotes, zygotes were thawed in 1 ml of prewarmed G-MOPS PLUS (Vitrolife) containing 1 M D-(+)-trehalose (Sigma-Aldrich) at 37° C. for 1 min. Zygotes were then transferred to 300 μl of G-MOPS PLUS containing 0.5 M D-(+)-trehalose at room temperature for 3 min, 300 μl of G-MOPS PLUS containing 0.25 M D-(+)-trehalose at room temperature for 5 min, and 300 μl of G-MOPS PLUS at room temperature for 2 min. Recovered zygotes were cultured in G1-PLUS supplemented with 10% FBS under paraffin oil at 37° C. and 5% CO2. Staining and microinjection of human zygotes were performed as described above for human oocytes.

## KIFC1/HSET: Recombinant mClover3-tagged human kinesin-14 KIFC1/HSET protein (SEQ ID NO: 1), expressed in 293 cells, microinjected into human oocytes and zygotes
[1]; FIG. 3H (left bar)
  fold higher probability of having a bipolar spindle vs mimics without introduced KIFC1/HSET: 3.2 fold
[1]; from around 30% to 96%
  difference in percentage of bipolar spindles: 66%
[1]; re-introduction of KIFC1/HSET (rescue experiment) in human oocyte mimics, without around 30%, FIG. 3H
  bipolar spindles: around 96%
[2]; KIFC1-injected human 3PN zygotes, non-injected 20%, FIG. 9E
  frequency of zygotes with aligned chromosomes at anaphase onset: 57%
[2]; KIFC1-injected human 3PN zygotes, non-injected 40%, FIG. 9F
  frequency of zygotes without lagging chromosomes during anaphase: 71%
[2]
  multipolar / bipolar spindle assembly: significantly reduces multipolar spindle assembly and/or promoted bipolar spindle assembly
[2]; listed as mClover3-KIFC1
  multipolar / bipolar spindle assembly: significantly reduced multipolar spindle assembly and promoted bipolar spindle assembly
